Our source for the Ki values is ChEMBL document CHEMBL1212818, “Polyamines inhibit carbonic anhydrases by anchoring to the zinc-coordinated water molecule” (J Med Chem, 2010).

Among the targets are Carbonic anhydrase 14 (Homo sapiens, UniProt Q9ULX7); Carbonic anhydrase 2 (Homo sapiens, UniProt P00918); Carbonic anhydrase 3 (Homo sapiens, UniProt P07451); Carbonic anhydrase 7 (Homo sapiens, UniProt P43166); Carbonic anhydrase 1 (Homo sapiens, UniProt P00915); Carbonic anhydrase 13 (Mus musculus, UniProt Q9D6N1); Carbonic anhydrase 6 (Homo sapiens, UniProt P23280); Carbonic anhydrase 4 (Homo sapiens, UniProt P22748); Carbonic anhydrase 9 (Homo sapiens, UniProt Q16790); Carbonic anhydrase 12 (Homo sapiens, UniProt O43570).

In experiment [1] the target is Carbonic anhydrase 5A, mitochondrial (Homo sapiens, UniProt P35218).
In experiment [2] the target is Carbonic anhydrase 5B, mitochondrial (Homo sapiens, UniProt Q9Y2D0).
The next experiment has as its target T1, Carbonic anhydrase 15 (Mus musculus, UniProt Q99N23).
T1 sequence (Q99N23 whole entry): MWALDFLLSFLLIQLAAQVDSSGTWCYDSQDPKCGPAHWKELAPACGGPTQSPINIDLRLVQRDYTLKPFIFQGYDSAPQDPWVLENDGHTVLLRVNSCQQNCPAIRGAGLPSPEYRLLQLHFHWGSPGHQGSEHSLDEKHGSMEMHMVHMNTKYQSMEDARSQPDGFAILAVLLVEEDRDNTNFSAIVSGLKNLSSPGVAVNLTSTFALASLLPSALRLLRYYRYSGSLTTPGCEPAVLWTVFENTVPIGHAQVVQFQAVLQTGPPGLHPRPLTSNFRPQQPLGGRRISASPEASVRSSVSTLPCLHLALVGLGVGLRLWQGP

Chain of Carbonic anhydrase 13 (Q9D6N1 whole entry): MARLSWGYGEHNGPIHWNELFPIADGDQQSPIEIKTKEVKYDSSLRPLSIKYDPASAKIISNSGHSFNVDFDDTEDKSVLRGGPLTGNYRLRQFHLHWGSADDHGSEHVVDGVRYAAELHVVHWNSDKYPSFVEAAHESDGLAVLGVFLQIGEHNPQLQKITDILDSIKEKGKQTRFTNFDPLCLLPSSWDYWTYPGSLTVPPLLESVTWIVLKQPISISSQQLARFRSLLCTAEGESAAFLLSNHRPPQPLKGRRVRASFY
Chain of Carbonic anhydrase 5B, mitochondrial (Q9Y2D0 whole entry): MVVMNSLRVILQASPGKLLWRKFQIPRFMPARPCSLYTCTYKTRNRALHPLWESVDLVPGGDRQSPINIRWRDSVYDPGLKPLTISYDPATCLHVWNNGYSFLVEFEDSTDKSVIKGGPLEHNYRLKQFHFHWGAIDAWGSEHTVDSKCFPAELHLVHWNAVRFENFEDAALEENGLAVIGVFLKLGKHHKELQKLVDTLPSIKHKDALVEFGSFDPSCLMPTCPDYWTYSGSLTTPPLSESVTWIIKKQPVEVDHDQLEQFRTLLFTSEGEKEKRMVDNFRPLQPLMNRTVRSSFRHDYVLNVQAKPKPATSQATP
Chain of Carbonic anhydrase 14 (Q9ULX7 whole entry): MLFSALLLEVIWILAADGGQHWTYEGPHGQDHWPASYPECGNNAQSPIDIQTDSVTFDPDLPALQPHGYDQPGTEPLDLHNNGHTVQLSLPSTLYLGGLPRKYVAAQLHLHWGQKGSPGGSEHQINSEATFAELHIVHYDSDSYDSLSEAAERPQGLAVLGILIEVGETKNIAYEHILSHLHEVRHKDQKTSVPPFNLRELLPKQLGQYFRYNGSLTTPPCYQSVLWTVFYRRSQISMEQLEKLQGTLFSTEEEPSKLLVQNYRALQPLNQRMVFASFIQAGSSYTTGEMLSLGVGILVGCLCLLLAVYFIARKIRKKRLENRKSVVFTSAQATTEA
Chain of Carbonic anhydrase 7 (P43166 whole entry): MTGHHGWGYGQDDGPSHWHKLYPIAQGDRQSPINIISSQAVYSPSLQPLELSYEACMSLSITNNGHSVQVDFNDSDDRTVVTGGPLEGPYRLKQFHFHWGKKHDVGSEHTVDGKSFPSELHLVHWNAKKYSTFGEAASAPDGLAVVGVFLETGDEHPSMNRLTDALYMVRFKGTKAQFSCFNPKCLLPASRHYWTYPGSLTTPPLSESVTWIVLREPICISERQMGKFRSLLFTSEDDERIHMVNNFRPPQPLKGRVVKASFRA
Chain of Carbonic anhydrase 5A, mitochondrial (P35218 whole entry): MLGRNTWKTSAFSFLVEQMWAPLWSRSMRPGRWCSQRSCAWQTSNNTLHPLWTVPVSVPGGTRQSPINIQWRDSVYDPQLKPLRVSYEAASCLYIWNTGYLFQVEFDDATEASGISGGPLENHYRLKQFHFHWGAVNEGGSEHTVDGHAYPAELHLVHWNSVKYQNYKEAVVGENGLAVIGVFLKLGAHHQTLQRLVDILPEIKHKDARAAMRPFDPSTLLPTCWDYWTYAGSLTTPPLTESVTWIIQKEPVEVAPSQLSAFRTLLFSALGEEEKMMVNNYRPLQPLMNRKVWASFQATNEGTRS
Chain of Carbonic anhydrase 3 (P07451 whole entry): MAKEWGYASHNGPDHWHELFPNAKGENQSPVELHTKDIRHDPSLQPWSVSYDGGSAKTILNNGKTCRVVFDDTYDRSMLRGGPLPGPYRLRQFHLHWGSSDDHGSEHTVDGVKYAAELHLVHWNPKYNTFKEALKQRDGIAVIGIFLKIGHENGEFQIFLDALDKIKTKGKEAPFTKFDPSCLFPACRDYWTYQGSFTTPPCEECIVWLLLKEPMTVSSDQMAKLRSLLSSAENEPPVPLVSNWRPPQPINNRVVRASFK
Chain of Carbonic anhydrase 12 (O43570 whole entry): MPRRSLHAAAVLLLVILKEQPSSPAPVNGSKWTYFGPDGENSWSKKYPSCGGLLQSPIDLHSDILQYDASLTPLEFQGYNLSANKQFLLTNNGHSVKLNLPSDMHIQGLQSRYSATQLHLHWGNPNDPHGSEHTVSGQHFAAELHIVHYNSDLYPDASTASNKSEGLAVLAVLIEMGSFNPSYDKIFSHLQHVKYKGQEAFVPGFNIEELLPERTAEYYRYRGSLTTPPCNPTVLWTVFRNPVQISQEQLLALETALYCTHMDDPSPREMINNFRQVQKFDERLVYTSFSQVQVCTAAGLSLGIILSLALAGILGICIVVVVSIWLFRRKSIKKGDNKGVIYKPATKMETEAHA
Chain of Carbonic anhydrase 4 (P22748 whole entry): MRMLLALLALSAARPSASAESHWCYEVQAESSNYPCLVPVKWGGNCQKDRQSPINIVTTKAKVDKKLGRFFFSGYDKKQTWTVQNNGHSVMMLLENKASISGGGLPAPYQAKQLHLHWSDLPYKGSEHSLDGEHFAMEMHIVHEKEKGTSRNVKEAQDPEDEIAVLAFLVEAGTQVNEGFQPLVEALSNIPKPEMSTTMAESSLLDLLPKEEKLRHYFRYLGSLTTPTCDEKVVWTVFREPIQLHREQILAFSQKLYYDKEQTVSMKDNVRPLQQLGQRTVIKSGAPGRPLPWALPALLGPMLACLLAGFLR
Chain of Carbonic anhydrase 1 (P00915 whole entry): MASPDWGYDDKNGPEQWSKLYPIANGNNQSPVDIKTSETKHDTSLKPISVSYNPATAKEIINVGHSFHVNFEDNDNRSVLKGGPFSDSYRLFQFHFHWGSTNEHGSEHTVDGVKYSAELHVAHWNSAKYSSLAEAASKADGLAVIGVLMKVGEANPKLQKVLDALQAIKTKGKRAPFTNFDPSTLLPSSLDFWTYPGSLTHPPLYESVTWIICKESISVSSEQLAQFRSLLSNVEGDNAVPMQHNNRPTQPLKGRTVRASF
Chain of Carbonic anhydrase 6 (P23280 whole entry): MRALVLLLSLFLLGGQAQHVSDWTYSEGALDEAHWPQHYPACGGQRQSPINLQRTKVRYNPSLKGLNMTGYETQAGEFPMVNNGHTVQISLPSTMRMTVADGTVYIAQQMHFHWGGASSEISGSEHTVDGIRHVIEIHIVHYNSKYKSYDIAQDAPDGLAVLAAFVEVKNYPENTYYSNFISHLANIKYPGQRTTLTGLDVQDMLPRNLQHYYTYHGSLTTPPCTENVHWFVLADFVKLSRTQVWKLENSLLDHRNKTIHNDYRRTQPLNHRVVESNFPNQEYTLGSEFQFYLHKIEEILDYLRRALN

One may read the Ki as the equilibrium dissociation constant of an inhibitor or competing ligand from its target. Low values mean tighter binding, high ones weaker binding. `NCCNCCCNCCN`: the inhibition constant (Ki) at Carbonic anhydrase 14 amounted to 36 µM; at Carbonic anhydrase 2 it was 75 µM; on Carbonic anhydrase 3 it was 63 µM; at Carbonic anhydrase 7 it was 58 µM; in experiment [1] it was 50 µM; at Carbonic anhydrase 1, 115 µM. In addition, the inhibitory constant (Ki) at Carbonic anhydrase 13 is 66 µM; on Carbonic anhydrase 6, 53 µM; in experiment [2], 59 µM; on Carbonic anhydrase 4, 44 µM; on Carbonic anhydrase 15, 66 µM; on Carbonic anhydrase 9, 48 µM. For the same compound, the affinity at Carbonic anhydrase 12 corresponds to a Ki of 68 µM.

In the case of `CC(=O)NCCNc1cccc2ccccc12`, the inhibitory constant (Ki) at Carbonic anhydrase 14 was 34 µM; on Carbonic anhydrase 2 it was 121 µM; at Carbonic anhydrase 3 it was 128 µM; at Carbonic anhydrase 7 it was 1.24 µM; in experiment [1], 106 µM; on Carbonic anhydrase 1 it was more than 500 µM. Besides, the Ki on Carbonic anhydrase 13 came out at 127 µM; on Carbonic anhydrase 6, 109 µM; in experiment [2], 107 µM; on Carbonic anhydrase 4 it was 12.3 µM; at Carbonic anhydrase 15 it was 110 µM; at Carbonic anhydrase 9, 12.2 µM. Besides, on Carbonic anhydrase 12, the affinity corresponds to a Ki of 21.5 µM.

For the compound `NCCCCNCCCN` [SPERMIDINE], the Ki on Carbonic anhydrase 14 worked out at 1 µM; on Carbonic anhydrase 2 it was 1.11 µM; at Carbonic anhydrase 3, 11.5 µM; on Carbonic anhydrase 7 it was 1.23 µM; in experiment [1], 1.22 µM; at Carbonic anhydrase 1, 1.4 µM. Also, the inhibitory constant (Ki) at Carbonic anhydrase 13 amounted to 11.6 µM; at Carbonic anhydrase 6, 1.41 µM; in [2] it was 1.44 µM; at Carbonic anhydrase 4, 0.112 µM; at Carbonic anhydrase 15, 10 µM; on Carbonic anhydrase 9 it was 1.37 µM. Besides, the Ki on Carbonic anhydrase 12 was 44.1 µM.

In the case of `NCCNCCNCCN` [TRIENTINE], the Ki is 12.1 µM on Carbonic anhydrase 14; 64 µM on Carbonic anhydrase 2; 48 µM on Carbonic anhydrase 3; 45 µM on Carbonic anhydrase 7; 38 µM in [1]; 100 µM on Carbonic anhydrase 1. For the same compound, the Ki on Carbonic anhydrase 13 was 52 µM; on Carbonic anhydrase 6, 43 µM; in [2], 49 µM; on Carbonic anhydrase 4, 35 µM; at Carbonic anhydrase 15 it was 59 µM; at Carbonic anhydrase 9 it was 39 µM. This compound returned a Ki on Carbonic anhydrase 12 of 57 µM.
